Source: US20210353633A1, “CYCLODEXTRIN-BASED FORMULATION OF A BCL-2 INHIBITOR” (LES LABORATOIRES SERVIER, priority 2018, published 2021)
Values after ≈ are worked out from the molar mass of the structure shown.

Experiments:
[1] = Aqueous solubility of Compound A; assay type: physicochemical; conditions: aqueous media, aqueous buffer; free base; across all pHs
Source text: In order to enable safe and effective administration of Compound A, and to elicit the required therapeutic effects, Compound A needs to be solubilized at higher concentration than its aqueous solubility.

[2] = Solubility test in various carriers (Example 1); assay type: physicochemical; conditions: aqueous with cosolvent or surfactant or cyclodextrin, thermodynamic from solid; in the carriers permitting substantial solubilisation (cyclodextrins, PEG400, PEG400/EtOH/0.9% NaCl); read-out: solubilities after 24 hours' stirring
Experimental: The solubility of ‘Compound A, H2SO4’ was studied in various media, including: • citrate buffer (pH=2; 50 mM), acetate buffer (pH=4; 50 mM) and phosphate buffer (pH=6-7.4; 67.7 mM); • cyclodextrins of the type sulfobutyl ether β-cyclodextrin (SBE-β-cyclodextrin) or hydroxypropyl β-cyclodextrin (HP-β-cyclodextrin); more precisely, the SBE-β-cyclodextrin tested is Dexsolve™ marketed by Cyclolab, while the HP-β-cyclodextrins tested are Cavitron™ W7HP7 and Cavitron™ W7HP5 marketed by Wacker; Kleptose™ HP and Kleptose™ HPB marketed by Roquette; • surfactants such as polysorbate 80 and Kolliphor™ ELP; • the mixture PEG400/ethanol/0.9% NaCl (40/10/50).
5 g of the cyclodextrin studied (Dexsolve™, Cavitron™ W7HP7, Cavitron™ W7HP5, Kleptose™ HP or Kleptose™ HPB) are weighed into a […] graduated flask. Approximately 15 mL of water are added and the whole obtained is subjected to magnetic stirring. The volume is then made up to 25 mL by the addition of water. The whole is placed under magnetic stirring for 10 minutes.
1 g of the surfactant studied is weighed into a 50 mL graduated flask. The volume is then made up to 50 mL by means of 0.9% NaCl solution. The whole is placed under magnetic stirring for 1 hour.
20 mL of PEG 400, 5 mL of ethanol and 25 mL of NaCl are taken. The whole is placed in a 100 mL Erlenmeyer flask and stirred magnetically for 30 minutes.
Approximately 340 mg of ‘Compound A, H2SO4’ are weighed into a 5 mL tube. 3 mL of the medium containing the carrier to be tested are then added. The whole is then placed under magnetic stirring for 2 hours or 24 hours. The suspension or solution so obtained is passed through a 0.2 μm filter (PVDF membrane—Millipore) before being analysed by HPLC. In addition, the presence of degradation products of Compound A was investigated in the samples stored for 72 hours at ambient temperature.

[3] = pH, appearance and precipitation pH of solutions diluted in 250 mL of glucose 5% solution (G5); assay type: physicochemical; conditions: for pH: hydrogen sulfate salt in Cavitron W7H5; for Precipitation pH (by light obscuration technique) / Precipitation pH (by visual observation): pH increased with NaOH 0.01N
Experimental: The Compound A used is in the form of a hydrogen sulfate salt. Invisible particulate contamination of the solutions was also controlled by light obscuration technique.
A mother solution containing a dose of 200 mg/mL of Cavitron™ W7H5 and 20 mg/mL of Compound A (expressed for the free base) is prepared by dissolving a lyophilisate as described in Example 5 in the necessary amount of water. The solution so obtained is then diluted by means of glucose 5% solution (G5).
The pH of the solutions obtained is measured and the appearance of the solutions is observed. The pH is increased using NaOH 0.01N solution until a precipitation is observed.

[4] = PK parameters in RS4;11 grafted female SCID mice; assay type: in vivo; conditions: for Cmax: female, SCID, mouse, blood, iv
Experimental: RS4;11 cell line, obtained from ATCC, were subcutaneously injected into female SCID mice, provided by Charles River. When tumors reached the appropriate tumor volume, mice were randomized using Easy stat software. […]
In a 100 mL flask, introduce 20 g of Cavitron™ W7HP5 and add around 75 mL of a solution water/0.9% NaCl (70/30, v/v). Stir for 15 minutes at room temperature. Then, make up the solution to a volume of 100 mL by adding the previous solution water/0.9% NaCl, while maintaining magnetic stirring. Weigh the necessary amount of ‘Compound A, H2SO4’ and dissolve it with the previous 20% w/v Cavitron™ W7H5 solution. Heat the whole at 60° C. under vigorous magnetic stirring until solubilisation of the components of the mixture is complete. Measure the pH of the solution obtained. Adjust the pH to 3 by adding drop by drop, either HCl 0.1N or NaOH 0.1N, depending on the concentration of Compound A. Stir the mixture at least for 1 hour. Filtrate the obtained solution with a 0.2 μm-filter.
A 20% w/v Cavitron™ W7H5 solution containing a dose of 4 mg/mL of Compound A was prepared following this procedure. A second solution containing a dose of 1.5 mg/mL of Compound A was also prepared by diluting further the previous solution with the 20% w/v Cavitron™ W7H5 solution.

[5] = 12 mg of Compound A in 250 mL of G5
[6] = 25 mg of Compound A in 250 mL of G5
[7] = 50 mg of Compound A in 250 mL of G5
[8] = 100 mg of Compound A in 250 mL of G5
[9] = 250 mg of Compound A in 250 mL of G5
[10] = 500 mg of Compound A in 250 mL of G5
[11] = 1000 mg of Compound A in 250 mL of G5

solubility [1]: < 10 µg/mL | solubility at 24 h [2]: 10000 to 30000 µg/mL (≈ 13.9 to 41.8 mM) | Appearance of the solution after 15 min [3, 5]: clear | pH [3, 5]: 3.7-4.310 | Precipitation pH (by light obscuration technique) [3, 5]: 5.4 | Precipitation pH (by visual observation) [3, 5]: 8.609 | Appearance of the solution after 15 min [3, 6]: clear | pH [3, 6]: 3.9-4.240 | Precipitation pH (by light obscuration technique) [3, 6]: 4.8 | Precipitation pH (by visual observation) [3, 6]: 5.220 | Appearance of the solution after 15 min [3, 7]: clear | pH [3, 7]: 3.8-4.158 | Precipitation pH (by light obscuration technique) [3, 7]: 4.5 | Precipitation pH (by visual observation) [3, 7]: 5.143 | Appearance of the solution after 15 min [3, 8]: clear | pH [3, 8]: 3.8-4.033 | Precipitation pH (by light obscuration technique) [3, 8]: 4.3 | Precipitation pH (by visual observation) [3, 8]: 4.872 | Appearance of the solution after 15 min [3, 9]: clear | pH [3, 9]: 3.7-3.809 | Precipitation pH (by light obscuration technique) [3, 9]: 4.1 | Precipitation pH (by visual observation) [3, 9]: 4.388 | Appearance of the solution after 15 min [3, 10]: clear | pH [3, 10]: 3.5-3.613 | Precipitation pH (by light obscuration technique) [3, 10]: 4.0 | Precipitation pH (by visual observation) [3, 10]: 4.378 | Appearance of the solution after 15 min [3, 11]: clear | pH [3, 11]: 3.3-3.401 | Precipitation pH (by light obscuration technique) [3, 11]: 4.0 | Precipitation pH (by visual observation) [3, 11]: 4.254 | precipitation when diluted in G5 solution ([3]; concentrations between 12 and 1000 mg/250 mL of G5 solution, solubilised by Cavitron W7H5 solution): do not precipitate | exposure ([4]; 15 mg/kg i.v.): 20463 ng·h/mL | exposure ([4]; 40 mg/kg i.v.): 46509 ng·h/mL | Cmax ([4]; 15 mg/kg i.v.): 14700 ng/mL | Cmax ([4]; 40 mg/kg i.v.): 23300 ng/mL
Compound: Cc1c(N(C(=O)c2cc(-c3cc(Cl)ccc3C(=O)N3Cc4ccccc4C[C@H]3CN3CCOCC3)n(C)c2C)c2ccc(O)cc2)cc(C#N)n1C [Compound A, 5-(5-chloro-2-{[(3S)-3-(morpholin-4-ylmethyl)-3,4-dihydroisoquinolin-2(1H)-yl]carbonyl}phenyl)-N-(5-cyano-1,2-dimethyl-1H-pyrrol-3-yl)-N-(4-hydroxyphenyl)-1,2-dimethyl-1H-pyrrole-3-carboxamide]
